Assay [1] addresses Glycogen synthase kinase-3 alpha (Homo sapiens, UniProt P49840). Description: TR-FRET Assay. The gist of the method:
(§1)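 Signal is measured as TR-FRET between a terbium anti-phospho-Ser641 antibody and streptavidin-d2, added after an EDTA quench. Compounds are preincubated 30 min in assay buffer.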
Background: In TR-FRET formats the signal depends on donor and acceptor labels being close together.

Assay [2] addresses Glycogen synthase kinase-3 beta (Homo sapiens, UniProt P49841). Description: TR-FRET Assay. In a few lines: as §1

SMILES strings stand for the structures. “And” between values parts separate entries of the source, which are not always exact repeats. Equal values may be shown once.

By IC50 is commonly meant the point on the concentration scale where inhibition reaches its midpoint.

Glycogen synthase kinase-3 alpha, sequence (P49840 whole entry): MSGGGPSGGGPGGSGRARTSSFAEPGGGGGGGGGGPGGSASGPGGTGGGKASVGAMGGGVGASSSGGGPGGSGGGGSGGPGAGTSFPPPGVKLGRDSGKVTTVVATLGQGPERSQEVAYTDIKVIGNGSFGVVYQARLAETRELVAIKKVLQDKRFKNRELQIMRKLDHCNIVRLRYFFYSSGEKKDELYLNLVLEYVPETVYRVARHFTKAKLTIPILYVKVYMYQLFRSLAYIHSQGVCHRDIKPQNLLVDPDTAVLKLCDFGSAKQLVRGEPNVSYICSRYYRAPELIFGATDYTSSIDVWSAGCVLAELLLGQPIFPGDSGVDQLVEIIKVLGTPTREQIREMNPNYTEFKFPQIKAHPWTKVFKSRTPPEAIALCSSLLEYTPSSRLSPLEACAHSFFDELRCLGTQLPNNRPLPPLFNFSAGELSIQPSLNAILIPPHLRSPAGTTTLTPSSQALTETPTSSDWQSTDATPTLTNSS
Glycogen synthase kinase-3 beta, sequence (P49841 whole entry): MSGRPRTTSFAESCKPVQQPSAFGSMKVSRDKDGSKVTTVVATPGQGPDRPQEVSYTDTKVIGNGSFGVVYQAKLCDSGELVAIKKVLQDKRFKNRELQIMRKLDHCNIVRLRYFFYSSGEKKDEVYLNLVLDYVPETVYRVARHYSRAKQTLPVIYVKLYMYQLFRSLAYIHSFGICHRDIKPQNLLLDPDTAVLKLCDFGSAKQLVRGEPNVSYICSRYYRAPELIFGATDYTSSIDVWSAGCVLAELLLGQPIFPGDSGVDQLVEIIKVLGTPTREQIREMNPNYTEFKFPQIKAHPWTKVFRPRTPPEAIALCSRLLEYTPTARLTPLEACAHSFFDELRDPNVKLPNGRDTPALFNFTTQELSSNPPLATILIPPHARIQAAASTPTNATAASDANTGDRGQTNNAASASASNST

Turning to `CCC1(c2cccc(-c3c(C)cnn3C)c2)C2=CN=NC2NC2=C1C(=O)CC(C)(C)C2` (configuration not stated) [US20250313563, Compound 947491], the IC50 in assay [1] and in assay [2] was under 100 nM in each case.
`CC1(C)CC(=O)C2=C(C1)NC1=C(CN=N1)C21CCN(S(=O)(=O)c2cnc3n2CCCC3)CC1` [US20250313563, Compound 947480]: the half-inhibitory concentration (IC50) in assay [1] and in assay [2] was under 100 nM in each case.
As for `CC[C@@H]1C[C@]2(CO1)C1=C(N=NC1)NC1=C2C(=O)CC(C)(C)C1` [US20250313563, Compound 913213], the IC50 fell in the range of 100 to 1000 nM in assay [1] and 1000 to 5000 nM in assay [2].
The matching figures for `CC[C@@]1(c2cccc(C(F)(F)F)c2)C2=CN=NC2NC2=C1C(=O)NCC2` (some centres not stated) [US20250313563, Compound 912668]: over 5000 nM and over 5000 nM.
Take `CC[C@@]1(c2cccc(-c3cnn(C)c3)c2)C2=C(CC(C)(C)NC2=O)NC2N=NC(C)=C21` (some centres not stated) [US20250313563, Compound 945614]: the IC50 in assay [1] is 100 to 1000 nM; in assay [2], 100 to 1000 nM and 1000 to 5000 nM.
For `CC1(C)CC(=O)C2=C(C1)NC1=C(CN=N1)C2(C)CCc1ccccc1` (configuration not stated) [US20250313563, Compound 819562], the figures for the IC50 in assay [1] and in assay [2] were 1000 to 5000 nM and over 5000 nM, respectively.
For the compound `CCC1(c2cccc(N(C)C(=O)c3cnn(C)c3)c2)C2=CN=NC2NC2=C1C(=O)CC(C)(C)C2` (configuration not stated) [US20250313563, Compound 912068], the IC50 in assay [1] is under 100 nM; in assay [2], 100 to 1000 nM.
The corresponding values for `CC1(C)CC(=O)C2=C(C1)NC1=C(CN=N1)[C@@]21CCOC2(CCCC2)C1` [US20250313563, Compound 907326] are 100 to 1000 nM and 1000 to 5000 nM.
The matching figures for `COCCN1CC2(C1)C1=C(N=NC1)NC1=C2C(=O)CC(C)(C)C1` [US20250313563, Compound 943544]: over 5000 nM and over 5000 nM.
The matching figures for `COc1cccc(S(=O)(=O)N2CC[C@@]3(C2)C2=C(N=NC2)NC2=C3C(=O)CC(C)(C)C2)c1` [US20250313563, Compound 943486]: under 100 nM and under 100 nM.
Consider `CCC1(c2cccc(N(Cc3ccccc3)C(C)=O)c2)C2=CN=NC2NC2=C1C(=O)CC(C)(C)C2` (configuration not stated) [US20250313563, Compound 884110], for which the IC50 in assay [1] and in assay [2] was under 100 nM throughout.
Take `CC[C@]1(c2cc(-c3ccnc(C)c3)ccc2F)C2=CN=NC2NC2=C1C(=O)CC(C)(C)C2` (some centres not stated) [US20250313563, Compound 909212]: the IC50 was under 100 nM in assay [1] and 100 to 1000 nM in assay [2].
The corresponding values for `CC1(C)CC(=O)C2=C(C1)NC1=C(CN=N1)C21Cc2ccccc21` (configuration not stated) [US20250313563, Compound 917226] are 100 to 1000 nM and 100 to 1000 nM.
The corresponding values for `CCCS(=O)(=O)c1cccc([C@]2(CC)C3=CN=NC3NC3=C2C(=O)CC(C)(C)C3)c1` (some centres not stated) [US20250313563, Compound 929452] are 1000 to 5000 nM and over 5000 nM.
The corresponding values for `CC[C@]1(c2cccc(S(=O)(=O)C3CC3)c2)C2=C(CC(C)(C)CC2=O)NC2N=NC(C(F)(F)F)=C21` (some centres not stated) [US20250313563, Compound 945715] are under 100 nM and under 100 nM.
On to `CC1(C)CC(=O)C2=C(C1)NC1=C(CN=N1)[C@@]21CCCN(S(=O)(=O)C2CC2)CC1` [US20250313563, Compound 932639], for which the figures for the IC50 in assay [1] and in assay [2] were under 100 nM and 100 to 1000 nM, respectively.
Consider `CC[C@]1(c2cccc(S(=O)(=O)CCOC)c2)C2=CN=NC2NC2=C1C(=O)CC(C)(C)C2` (some centres not stated) [US20250313563, Compound 943542], for which the IC50 in assay [1] is < 100 nM and 100 to 1000 nM; in assay [2], < 100 nM and 1000 to 5000 nM.
As to `CC[C@]1(c2cccc(-c3ccnc4c3CCCC4)c2)C2=CN=NC2NC2=C1C(=O)CC(C)(C)C2` (some centres not stated) [US20250313563, Compound 944036], the concentration for half-maximal inhibition (IC50) in assay [1] was 1000 to 5000 nM; in assay [2], over 5000 nM.
The matching figures for `CC1(C)CC(=O)C2=C(C1)NC1=C(CN=N1)C21CCN(S(=O)(=O)c2ccccc2C#N)CC1` [US20250313563, Compound 947479]: under 100 nM and under 100 nM.
Turning to `CC[C@]1(c2cccc(-c3ccnc(C)c3)c2)C2=CN=NC2NC2=C1C(=O)NC1(CCC1)C2` (some centres not stated) [US20250313563, Compound 949517], the figures for the IC50 in assay [1] and in assay [2] were 1000 to 5000 nM and over 5000 nM, respectively.
The corresponding values for `CC[C@]1(c2cccc(N(C)c3cnccn3)c2)C2=CN=NC2NC2=C1C(=O)CC(C)(C)C2` (some centres not stated) [US20250313563, Compound 915316] are under 100 nM and under 100 nM.
The corresponding values for `CC[C@@]1(c2cccc(-c3cnn(Cc4cccc(F)c4F)c3)c2)C2=CN=NC2NC2=C1C(=O)NC(C)(C)C2` (some centres not stated) [US20250313563, Compound 951840] are under 100 nM and 100 to 1000 nM.
The corresponding values for `CCC1(c2cccc(C(F)(F)F)c2)C2=CN=NC2NC2=C1C(=O)NC(C)(C)C2F` (configuration not stated) [US20250313563, Compound 819622] are under 100 nM and 100 to 1000 nM.
Turning to `CC[C@@]1(c2cccc(N(C)c3ccccn3)c2)C2=CN=NC2NC2=C1C(=O)CC(C)(C)C2` (some centres not stated) [US20250313563, Compound 875568], the IC50 in assay [1] and in assay [2] was under 100 nM each time.
Take `CC[C@]1(c2cccc(-c3ccnnc3)c2)C2=CN=NC2NC2=C1C(=O)CC(C)(C)C2` (some centres not stated) [US20250313563, Compound 929443]: the IC50 in assay [1] and in assay [2] was over 5000 nM throughout.
On to `CCC1(c2cccc(-c3cnn4c3CCCC4)c2)C2=CN=NC2NC2=C1C(=O)NC(C)(C)C2` (configuration not stated) [US20250313563, Compound 945603], for which the concentration for half-maximal inhibition (IC50) is under 100 nM in assay [1] and 100 to 1000 nM in assay [2].
The matching figures for `CC[C@]1(c2cccc(C(F)(F)F)c2)C2=C(CC(C)(C)NC2=O)NC2N=NC(F)=C21` (some centres not stated) [US20250313563, Compound 957518]: under 100 nM and 100 to 1000 nM.
The matching figures for `CCCC(C(C)=O)c1cccc(C2(CC)C3=CN=NC3NC3=C2C(=O)CC(C)(C)C3)c1` (configuration not stated) [US20250313563, Compound 909205]: under 100 nM and under 100 nM.
As for `CC[C@]1(c2cccc(-c3cnn(-c4ccccn4)c3)c2)C2=CN=NC2NC2=C1C(=O)NC(C)(C)C2` (some centres not stated) [US20250313563, Compound 949264], the IC50 in assay [1] and in assay [2] was over 5000 nM in each case.
For the compound `CC[C@@]1(c2cccc(C(F)(F)F)c2)C2=C(N=NC2)NC2=C1C(=O)NC2(C)C` [US20250313563, Compound 913452], the IC50 in assay [1] and in assay [2] was over 5000 nM each time.
Turning to `CCC1(c2cccc(C(F)(F)F)c2)C2=CN=NC2NC2=C1C(=O)CC(C)C2` (configuration not stated) [US20250313563, Compound 801397], the values for the IC50 in assay [1] and in assay [2] were under 100 nM and 100 to 1000 nM, respectively.
The matching figures for `CC[C@@]1(c2cccc(C(F)(F)F)c2)C2=CN=NC2NC2=C1C(=O)N(c1cnn(C)c1)CC2` (some centres not stated) [US20250313563, Compound 949271]: 100 to 1000 nM and over 5000 nM.
In the case of `CC[C@]1(c2cccc(N3CCOCC3)c2)C2=C(CC(C)(C)CC2=O)NC2N=NC(C(F)(F)F)=C21` (some centres not stated) [US20250313563, Compound 816885], the IC50 in assay [1] and in assay [2] was under 100 nM in each case.
Regarding `CC1(C)CC(=O)C2=C(NC3=C(CN=N3)C23CCN(S(=O)(=O)c2ccccc2C(F)F)CC3)[C@H]1F` [US20250313563, Compound 951839], the IC50 was under 100 nM in assay [1] and 100 to 1000 nM in assay [2].
The corresponding values for `CC[C@]1(c2cccc(-c3cnnn3C)c2)C2=CN=NC2NC2=C1C(=O)CC(C)(C)C2` (some centres not stated) [US20250313563, Compound 947824] are 100 to 1000 nM and 1000 to 5000 nM.
The corresponding values for `Cn1cc([C@H]2CC[C@@]3(CC2)C2=C(N=NC2)NC2=C3C(=O)CC(C)(C)C2)cn1` [US20250313563, Compound 949323] are 1000 to 5000 nM and over 5000 nM.
`CC1(c2ccccc2)C2=C(N=NC2)NC2=C1C(=O)CC1(CCCC1)C2` (configuration not stated) [US20250313563, Compound 789460]: the IC50 in assay [1] and in assay [2] was 100 to 1000 nM each time.
`CCC1(c2cccc(OC(C)C)c2)C2=CN=NC2NC2=C1C(=O)CC(C)(C)C2` (configuration not stated) [US20250313563, Compound 801448]: the IC50 in assay [1] is under 100 nM; in assay [2], 100 to 1000 nM.
The matching figures for `CCC1(c2cccc(Cc3ncccn3)c2)C2=CN=NC2NC2=C1C(=O)NC(C)(C)C2` (configuration not stated) [US20250313563, Compound 950151]: under 100 nM and 1000 to 5000 nM.
The corresponding values for `CC[C@@]1(c2cccc(N(C)c3cccc(C(F)(F)F)n3)c2)C2=CN=NC2NC2=C1C(=O)CC(C)(C)C2` (some centres not stated) [US20250313563, Compound 927338] are under 100 nM and 100 to 1000 nM.
The corresponding values for `CC(C)(C)CC1N=NC2=C1[C@](C)(c1cccc(S(=O)(=O)N3CCCC3)c1)C1=C(CC(C)(C)NC1=O)N2` (some centres not stated) [US20250313563, Compound 108791] are 1000 to 5000 nM and 100 to 1000 nM.
Turning to `CCC1(c2cccc(C(F)F)c2)C2=CN=NC2NC2=C1C(=O)CC(C)(C)C2` (configuration not stated) [US20250313563, Compound 819564], the half-inhibitory concentration (IC50) in assay [1] and in assay [2] was under 100 nM throughout.
On to `CC[C@]1(c2cccc(N3CCc4ccncc43)c2)C2=CN=NC2NC2=C1C(=O)CC(C)(C)C2` (some centres not stated) [US20250313563, Compound 912003], for which the IC50 in assay [1] was under 100 nM; in assay [2], 100 to 1000 nM.
The matching figures for `C[C@@H]1CC[C@@]2(C1)C1=C(N=NC1)NC1=C2C(=O)CC(C)(C)C1` [US20250313563, Compound 897750]: under 100 nM and under 100 nM.
Consider `CC[C@]1(c2cccc(-c3c(C)nn(C)c3C)c2)C2=C(CC(C)(C)CC2=O)NC2N=NC(C)=C21` (some centres not stated) [US20250313563, Compound 913043], for which the IC50 in assay [1] is under 100 nM; in assay [2], < 100 nM and 100 to 1000 nM.
With `CC[C@]1(c2cccc(-c3cn(C)nc3C)c2)C2=C(CC(C)(C)NC2=O)NC2N=NC(C)=C21` (some centres not stated) [US20250313563, Compound 945996], the IC50 was in the range of 100 to 1000 nM in assay [1] and 1000 to 5000 nM in assay [2].
